Each structure is given as a SMILES string.

For the compound `Cn1c(S)nnc1CC#N`, the melting point (in general, the temperature of the solid-liquid transition) fell in the range of 188 to 190 °C. To `ON=C(O)c1ccccc1O` belongs 177 to 185 °C; to `C=C(C)CCCCCCC`, -64 °C; to `CC(=O)CCc1ccc(CCC(C)=O)cc1`, 55 to 56 °C. `O=C1c2ccc(O)c(O)c2C(=O)c2ccc(O)c(O)c21` displayed a melting point of 340 °C. The result for `COc1ccc(C2Sc3ccccc3NC(=O)C2O)cc1` (stereo not given) reads 203 to 207 °C; that for `CNC(=O)Oc1cc(C)cc(C(C)C)c1`, 87 °C. To `NNC(=S)Nc1ccc(OCc2ccccc2)cc1` belongs 167 to 170 °C. To `CCCCCCCCCCC(C)C(=O)O` (stereo not given) belongs 22 °C.

`COc1cc(O)cc(OC)c1` returned a melting point of 46 °C. Compound `COc1ccc(-c2ccc(S(=O)(=O)N3CCCC3C(=O)O)cc2)cc1` (stereo not given) displayed a melting point of 154 °C.

Compound `CCOc1cc(C(C)(C)C)ccc1C1COC(c2c(F)cccc2F)=N1` (stereo not given) returned a melting point of 102 °C. To `CC(=Cc1ccc(C(=O)O)cc1)c1ccc2c(c1)C(C)(C)CCC2(C)C` belongs 240 °C; to `CCCCC=CCCCCCCCCOC(C)=O`, 1.3 °C.

Regarding `NC(=O)c1c(F)ccc(F)c1F`, the melting point was 117 °C. Regarding `NC(=O)C1(C(=O)O)CC1`, the melting point was in the range of 184 to 189 °C. In turn, `Cc1ccccc1N/N=C(\C#N)c1nc(-c2ccccc2)cs1` came in with a melting point of 144 °C. As to `O=C(O)c1cccc(-c2ncccn2)c1`, the melting point fell in the range of 180 to 182 °C. To `Cc1ccc(S(=O)(=O)n2ccc(C(=O)O)c2)cc1` belongs 202 to 206 °C; to `O=C(O)Cc1ccc(C(=O)CCl)s1`, 101 to 104 °C.

`COc1cc(I)c(OC)cc1Cl` had a melting point of 115 to 116 °C. The result for `O=Cc1cccc2nsnc12` reads 99 to 101 °C. The result for `Cc1nc(NC(=O)NS(=O)(=O)c2cccs2)nc(O)c1C` reads 219 to 221 °C. Compound `Clc1nncc2ccccc12` returned a melting point of 111 °C. `CCOC(=O)c1[nH]c(C)c(C=O)c1C` displayed a melting point of 145 to 146 °C. For `CC1(c2ccccc2)CC(C(=NOCC2CO2)c2cc3ccccc3o2)C1` (stereo not given), the melting point lay within 159 to 160 °C. The result for `O=[N+]([O-])c1ccccc1Nc1ccccc1` reads 75 °C. The result for `Clc1cc2c(c(Cl)c1Cl)Oc1c(Cl)c(Cl)c(Cl)c(Cl)c1O2` reads 264 °C; that for `CCCSP(=O)(OCC)SCCC`, 70 °C.

As for `O=c1ccoc2ccc(Br)cc12`, the melting point is 141 °C. `C1CN2CCN3CCN4CCN1C2C43` (stereo not given) gave a melting point of 30 °C.

`Fc1ccc2ccccc2c1`: the melting point came out at 61 °C. With `COCN1CCOCCOCCN(COC)CCOCCOCC1`, the melting point is 33 to 38 °C. The result for `COc1ccc(-c2ccc(OC)cc2)cc1` reads 177 to 181 °C; that for `O=c1c2ccccc2[nH]c2ccccc12`, 360 to 362 °C.

`COc1ccc2c(C)cc(=O)oc2c1`: the melting point was 161 °C. Consider `Clc1ccc(NC2=NCCN2)cc1`, for which the melting point lay in the range of 147 to 148 °C. `CC(C)c1cccc2ccccc12` returned a melting point of -16 °C. Compound `NC(=O)C1CCN(C(=O)OCc2ccccc2)CC1` returned a melting point of 130 to 132 °C.

The compound `Oc1ccnc(Cl)c1` yielded a melting point of 171 °C. The result for `NC(=O)/C(=C\c1ccc(Cl)cc1Cl)c1nc2ccccc2s1` reads 263 °C; that for `CSc1ccc2c(c1)N(CCC1CCCCN1C)c1ccccc1S2` (stereo not given), 73 °C; that for `O=C1CSc2cc(Cl)ccc2N1`, 214 °C. `CC(=O)CCc1ccc(CCC(C)NC(=O)c2ccccc2)cc1` (stereo not given) came in with a melting point of 122 °C. `O=C(O)C1CC(=O)N(CCc2ccc(Cl)cc2)C1` (stereo not given) had a melting point of 148 to 150 °C. To `O=C(O)c1cc2cc([N+](=O)[O-])ccc2oc1=O` belongs 200 °C; to `O=C(Nc1cccc2c1c(S(=O)(=O)O)cc1oc(-c3ccccc3)nc12)c1ccccc1`, 276 °C; to `CC(=O)C1CC[C@]2(C)[C@H]3CC[C@]4(C)C(O)CC[C@H]4[C@@H]3CC[C@@]2(C)C1` (stereo not given in full), 152 °C.

For `CCOC(=O)c1cnn(-c2ccccc2)c1N`, the melting point amounted to 99.5 °C.

In turn, `COc1c(C)c2c(c(O)c1CC=C(C)CCC(=O)O)C(=O)OC2` came in with a melting point of 141 °C. To `COc1ccc(-c2cc(=O)c3c(O)cc(O)cc3o2)cc1O` belongs 254 °C; to `CC1CC(N(C)C)C(O)C(OC2C(C)CC(C)C(=O)C=CC(C)C(C(C)O)OC(=O)C2C)O1` (stereo not given), 157 °C. The result for `CCOC(=O)CC(SP(=S)(OC)OC)C(=O)OCC` (stereo not given) reads 2.8 °C; that for `CCc1ccc(CCl)cc1`, -21 °C. The result for `CCC(C)OC(=O)C1=C(C)NC(=O)NC1c1ccco1` (stereo not given) reads 185 °C; that for `CC(=O)Nc1ccc(N=Nc2ccc([N+]([O-])=Nc3ccc(NC(C)=O)cc3)cc2)cc1`, 317 °C.

For the compound `NC(=S)CS(=O)(=O)c1ccc(Cl)cc1`, the melting point lay within 188 to 192 °C. The result for `Nc1nncs1` reads 191 °C; that for `Nc1ccccc1OCCN1CCOCC1`, 41 to 42 °C; that for `CC(=O)c1cc(Cl)c(C)cc1O`, 70 to 73 °C. `O=C(O)c1c(-c2ccccc2)nnc2ccccc12` had a melting point of 216 °C. To `CCCN(CCCl)c1c([N+](=O)[O-])cc(C(F)(F)F)cc1[N+](=O)[O-]` belongs 42 °C; to `COc1ccc(C=CC(=O)c2ccc(OC)cc2OC)cc1`, 97 °C. The result for `Clc1ccc2c(N3CCNCC3)ccnc2c1` reads 113 to 116 °C; that for `C#CCC1(CC#C)C(=O)OC(C)(C)OC1=O`, 135 to 137 °C; that for `Cc1ccc(C)c(C(=O)N(NC(=O)c2ccccc2)C(C)(C)C)c1`, 198 °C.

The compound `NCCCC(N)C(=O)O` (stereo not given) yielded a melting point of 140 °C. The result for `O=c1[nH]c(=O)c2cn[nH]c2[nH]1` reads 300 °C; that for `FC(F)(F)c1cncc(C(F)(F)F)c1`, 37 °C; that for `NNC(=O)OCc1ccccc1`, 68 °C. `CC(=O)c1cc(C)ccc1C` came in with a melting point of -18.1 °C. The compound `N#Cc1cc(F)ccc1[N+](=O)[O-]` had a melting point of 103 °C. To `O=S(=O)(Cl)c1ccc(-c2ccccn2)s1` belongs 87 to 89 °C; to `CC(C)(C)c1ccc2cc3ccccc3cc2c1`, 147 °C; to `O=C(O)c1ccc(-c2ccccc2F)cc1`, 234 to 236 °C. The result for `O=C(c1ccccc1)c1cc(C(=O)c2ccccc2)c([N+](=O)[O-])cc1[N+](=O)[O-]` reads 174 °C; that for `Cn1nc(C(F)(F)F)c(-c2ccccc2)c1N`, 85 to 89 °C.

The compound `COc1ccc(Cl)cc1C(=O)NCCc1ccc(S(=O)(=O)NC(=O)NC2CCCCC2)cc1` came in with a melting point of 169 °C. To `CN(C)CCCC1(c2ccc(F)cc2)OCc2cc(C#N)ccc21` (stereo not given) belongs 182 °C. To `O=C(c1ccc(Br)cc1)c1noc(-c2ccc(Br)cc2)c1S(=O)(=O)c1ccccc1` belongs 155 °C; to `CC(=O)OC1CCC2(C)C(=CC(=O)C3C2CCC2(C)C(OCc4ccccc4)CCC32)C1` (stereo not given), 203 °C; to `CC(C)(C)c1ccncc1`, -41 °C. To `ON=Cc1ccc2ccccc2c1` belongs 169 °C; to `COC(=O)c1ccc(-c2cccs2)nc1`, 117 to 118 °C. Turning to `Cc1ccc(C#N)c(N)c1`, the melting point lay within 92 to 93 °C. To `Nc1c[nH]c(=O)[nH]c1=O` belongs 300 °C.

For the compound `CCOC(=O)c1c(SC)nn(-c2ccc([N+](=O)[O-])cc2)c1N`, the melting point was found to be 181 °C. The result for `NC(=O)c1cc(C(F)(F)F)cc(C(F)(F)F)c1` reads 162 °C; that for `Cn1nc(C(C)(C)C)cc1N`, 157 °C; that for `Cc1cc(C)c(NC(=O)C(F)(F)C(F)(F)C(F)(F)C(F)(F)C(F)(F)C(F)(F)C(F)(F)C(F)(F)F)c(C)c1`, 63 °C. `O=C1NC(=NN=Cc2ccccc2)SC1=Cc1ccccc1` registered a melting point of 295 °C. To `CC(C(=O)O)N(C)C(=O)OC(C)(C)C` (stereo not given) belongs 90 °C. To `O=Cc1ccccc1OCc1cccc(Cl)c1` belongs 38 to 41 °C; to `Cc1ccc2c(C)c(C)ccc2c1`, 14 °C. To `Cc1nc(-c2cccc(C(=O)O)c2)no1` belongs 223 to 225 °C; to `COc1ccccc1OCC(O)COC(N)=O` (stereo not given), 93 °C. In the case of `CCCC1(C)CC(=O)NC1=O` (stereo not given), the melting point lay in the range of 76 to 78 °C. To `Cc1cc(C)c(O)c(C)c1C` belongs 80.5 °C; to `CCCCCCCCC(=O)OC1CCC2(C)C(=CCC3C2CCC2(C)C(C(C)CCCC(C)C)CCC32)C1` (stereo not given), 74 to 77 °C; to `CSc1nc2[nH]c(=S)n(Cc3ccccc3)c(=O)c2n1C`, 231 to 233 °C.

`CC(F)(F)CCl`: the melting point was -56.2 °C. Turning to `Cc1ccc(O)c(C(=O)CC(=O)c2ccccc2)c1`, the melting point lay within 92 to 94 °C. Consider `Cc1cccc(OCC(=O)O)c1`, for which the melting point worked out at 104 °C. Turning to `Cc1ccc(S(=O)(=O)OC2CCCCC2)cc1`, the melting point came out at 46 °C. In the case of `COc1cccc2cccnc12`, the melting point is 49.5 °C.

Consider `Cc1cc(C)c2c(c1C)CC2=O`, for which the melting point came to 98 °C. The compound `CCOC(=O)c1cc2ccccc2oc1=O` returned a melting point of 94 °C. To `O=C(C=CC1=NC=NC1)NCCc1cnc[nH]1` belongs 240 to 241 °C. As for `NC(=O)NC1NC(=O)NC1=O` (stereo not given), the melting point turned out to be 238 °C. The result for `O=[N+]([O-])c1cc2nccnc2cc1Br` reads 221 to 227 °C.
